{"source": "patent US8895282B2", "about": "“Use of a substance for manufacturing of a medicament for treatment of common cold” (Tanomed AB, priority 2008, dated 2014)", "key": {"[1]": {"tested_on": "Rhinovirus 7", "procedure": "Virus: Rhinovirus 7, purchased from ATCC (VR-1117), was used as a representative for the rhinovirus group. In the assays the dilutions 10^−2 and 10^−3 were used. […] 0.3 ml of each dilution was added into the vials.\n(§1) Cell culture: Human lung cell fibroblasts (WI 38, ATCC-CCL-75) was used for cytopathic effect detection. 10-fold serial dilutions had been made from the concentrated viral suspension. […] Then the media was changed to RPMI with 2% of fetal calf serum, which was preserved during the assay. The cells were incubated in CO2enriched air at 37° C. During the experiments a cell culture of 17th-18^thpassage was used.\nCatalase: From Sigma-Aldrich™. A solution of 100 000 U/ml was prepared from the original solution of 10^6 U/ml.\nH2O2: a 20% solution was diluted in Phosphate buffered saline (PBS) to a 0.5% and a 0.05% solution. 0.1 ml was added to the vials, which means 0.05% or 0.005% in the vials.\nA solution of 200 U/ml and 600 U/ml was prepared from the original solution of 6000 U/ml.\nIn order to evaluate whether the effect of the hydrogen peroxide was a direct effect on the virus itself or a cytoprotective effect, we preincubated the virus with the hydrogen peroxide, before it was transferred to the wells with the cells. The WI 38 cells are also sensitive to hydrogen peroxide, and therefore it was necessary to add catalase before inoculation into the wells. […] This design would also reveal if the inhibitory effect was only a virostatic one, or if it could damage the virions irreversibly.\n(§2) In table 1 the content of each of the 10 vials (Eppendorf) is listed. The vials were incubated in a heater keeping a stable temperature of 37° C. 1000 U of catalase was added after 15, 30 and 60 min of incubation. 2×50 μl from each vial was transferred to duplicate cell wells (a 96-well plate)."}, "[2]": {"tested_on": "WI 38 cells", "procedure": "as §1, §2"}, "[3]": {"tested_on": "Rhinovirus 7", "details": "b7: RV7 preincubated 30 min with 0.01% hydrogen peroxide, then catalase", "procedure": "(§3) Virus concentration=dil 2. Incubation during 30 min in heater keeping 37° C. After 30 min the effect of the hydrogen peroxide is aborted with the addition of 0.1 ml catalase solution into the vial (=1 kU/ml). • 0.7 ml 5% glucose solution+0.1 ml dil 1 of RV7 (=a7) or RV8 (=a8)+0.1 ml of the hydrogen peroxide solution (=final concentration in the vial=[…]). Incubation and abortion of the hydrogen peroxide effect similar as in a).\n(§4) Altogether 4 vials (Eppendorff): a7, a8, b7 and b8.\n(§5) After the addition of catalase, samples are transferred to a 96-well plate with flat bottom according to table 3."}, "[4]": {"tested_on": "Rhinovirus 8", "details": "50 μl b8: RV8 preincubated 30 min with 0.01% hydrogen peroxide, then catalase", "procedure": "as §3, §4, §5"}, "[5]": {"tested_on": "WI 38 cells", "procedure": "as §3, §5", "remark": "listed apart in the source"}, "[6]": {"details": "0.005% H2O2, RV 7 dil 10^−2, preincubation 15 min"}, "[7]": {"details": "0.005% H2O2, RV 7 dil 10^−2, preincubation 30 min"}, "[8]": {"details": "0.005% H2O2, RV 7 dil 10^−2, preincubation 60 min"}, "[9]": {"details": "0.005% H2O2, RV 7 dil 10^−3, preincubation 15 min"}, "[10]": {"details": "0.005% H2O2, RV 7 dil 10^−3, preincubation 30 min"}, "[11]": {"details": "0.005% H2O2, RV 7 dil 10^−3, preincubation 60 min"}, "[12]": {"details": "0.05% H2O2, RV 7 dil 10^−2, preincubation 15 min"}, "[13]": {"details": "0.05% H2O2, RV 7 dil 10^−2, preincubation 30 min"}, "[14]": {"details": "0.05% H2O2, RV 7 dil 10^−2, preincubation 60 min"}, "[15]": {"details": "0.05% H2O2, RV 7 dil 10^−3, preincubation 15 min"}, "[16]": {"details": "0.05% H2O2, RV 7 dil 10^−3, preincubation 30 min"}, "[17]": {"details": "0.05% H2O2, RV 7 dil 10^−3, preincubation 60 min"}}, "note": "“And” between values parts separate entries of the source, which are not always exact repeats. Identical values can stand only once. Like-named read-outs stand apart in the source and are kept apart here."}
{"smiles": "OO", "note": "[H2O2, hydrogen peroxide]", "values": [{"measurement": "Inactivation of RV 7", "setting": "[1]; 0.005% (2 mM) hydrogen peroxide, higher concentration of RV 7", "result": "not able to inactivate"}, {"measurement": "Day 3 (cytopathic effect of RV 7 on WI 38 cells)", "setting": "[1]; [6]", "result": "+"}, {"measurement": "Day 5 (cytopathic effect of RV 7 on WI 38 cells)", "setting": "[1]; [6]", "result": "++"}, {"measurement": "Day 7 (cytopathic effect of RV 7 on WI 38 cells)", "setting": "[1]; [6]", "result": "++"}, {"measurement": "Day 3 (cytopathic effect of RV 7 on WI 38 cells)", "setting": "[1]; [7]", "result": "+"}, {"measurement": "Day 5 (cytopathic effect of RV 7 on WI 38 cells)", "setting": "[1]; [7]", "result": "+"}, {"measurement": "Day 7 (cytopathic effect of RV 7 on WI 38 cells)", "setting": "[1]; [7]", "result": "++"}, {"measurement": "Day 3 (cytopathic effect of RV 7 on WI 38 cells)", "setting": "[1]; [8]", "result": "+"}, {"measurement": "Day 5 (cytopathic effect of RV 7 on WI 38 cells)", "setting": "[1]; [8]", "result": "+"}, {"measurement": "Day 7 (cytopathic effect of RV 7 on WI 38 cells)", "setting": "[1]; [8]", "result": "+"}, {"measurement": "Day 3 (cytopathic effect of RV 7 on WI 38 cells)", "setting": "[1]; [9]", "result": "−"}, {"measurement": "Day 5 (cytopathic effect of RV 7 on WI 38 cells)", "setting": "[1]; [9]", "result": "+"}, {"measurement": "Day 7 (cytopathic effect of RV 7 on WI 38 cells)", "setting": "[1]; [9]", "result": "+"}, {"measurement": "Day 3 (cytopathic effect of RV 7 on WI 38 cells)", "setting": "[1]; [10]", "result": "−"}, {"measurement": "Day 5 (cytopathic effect of RV 7 on WI 38 cells)", "setting": "[1]; [10]", "result": "−"}, {"measurement": "Day 7 (cytopathic effect of RV 7 on WI 38 cells)", "setting": "[1]; [10]", "result": "−"}, {"measurement": "Day 3 (cytopathic effect of RV 7 on WI 38 cells)", "setting": "[1]; [11]", "result": "−"}, {"measurement": "Day 5 (cytopathic effect of RV 7 on WI 38 cells)", "setting": "[1]; [11]", "result": "−"}, {"measurement": "Day 7 (cytopathic effect of RV 7 on WI 38 cells)", "setting": "[1]; [11]", "result": "−"}, {"measurement": "Inactivation of RV 7", "setting": "[1]; 0.005% hydrogen peroxide, 60 min of incubation, RV 7 10^−3 dilution", "result": "able to inactivate"}, {"measurement": "Inactivation of RV 7", "setting": "[1]; 0.05% (20 mM) H2O2, all RV 7 concentrations, already after 15 min of incubation", "result": "able to inactivate"}, {"measurement": "Day 3 (cytopathic effect of RV 7 on WI 38 cells)", "setting": "[1]; [12]", "result": "−"}, {"measurement": "Day 5 (cytopathic effect of RV 7 on WI 38 cells)", "setting": "[1]; [12]", "result": "−"}, {"measurement": "Day 7 (cytopathic effect of RV 7 on WI 38 cells)", "setting": "[1]; [12]", "result": "−"}, {"measurement": "Day 3 (cytopathic effect of RV 7 on WI 38 cells)", "setting": "[1]; [13]", "result": "−"}, {"measurement": "Day 5 (cytopathic effect of RV 7 on WI 38 cells)", "setting": "[1]; [13]", "result": "−"}, {"measurement": "Day 7 (cytopathic effect of RV 7 on WI 38 cells)", "setting": "[1]; [13]", "result": "−"}, {"measurement": "Day 3 (cytopathic effect of RV 7 on WI 38 cells)", "setting": "[1]; [14]", "result": "−"}, {"measurement": "Day 5 (cytopathic effect of RV 7 on WI 38 cells)", "setting": "[1]; [14]", "result": "−"}, {"measurement": "Day 7 (cytopathic effect of RV 7 on WI 38 cells)", "setting": "[1]; [14]", "result": "−"}, {"measurement": "Day 3 (cytopathic effect of RV 7 on WI 38 cells)", "setting": "[1]; [15]", "result": "−"}, {"measurement": "Day 5 (cytopathic effect of RV 7 on WI 38 cells)", "setting": "[1]; [15]", "result": "−"}, {"measurement": "Day 7 (cytopathic effect of RV 7 on WI 38 cells)", "setting": "[1]; [15]", "result": "−"}, {"measurement": "Day 3 (cytopathic effect of RV 7 on WI 38 cells)", "setting": "[1]; [16]", "result": "−"}, {"measurement": "Day 5 (cytopathic effect of RV 7 on WI 38 cells)", "setting": "[1]; [16]", "result": "−"}, {"measurement": "Day 7 (cytopathic effect of RV 7 on WI 38 cells)", "setting": "[1]; [16]", "result": "−"}, {"measurement": "Day 3 (cytopathic effect of RV 7 on WI 38 cells)", "setting": "[1]; [17]", "result": "−"}, {"measurement": "Day 5 (cytopathic effect of RV 7 on WI 38 cells)", "setting": "[1]; [17]", "result": "−"}, {"measurement": "Day 7 (cytopathic effect of RV 7 on WI 38 cells)", "setting": "[1]; [17]", "result": "−"}, {"measurement": "Reversibility of the inactivation of RV 7", "setting": "[1]; Glucose Oxidase or 0.05% hydrogen peroxide solution, 7 days of incubation, no sign of recovery", "result": "irreversible"}, {"measurement": "Day 3 (toxic effect on WI 38 cells, control)", "setting": "[2]", "result": "TOX"}, {"measurement": "Day 5 (toxic effect on WI 38 cells, control)", "setting": "[2]", "result": "TOX"}, {"measurement": "Day 7 (toxic effect on WI 38 cells, control)", "setting": "[2]", "result": "TOX"}, {"measurement": "Toxic effect on WI 38 cells", "setting": "[2]", "result": "severe toxic effect"}, {"measurement": "Infection of WI 38 cells after 2 days of inoculation", "setting": "[3]", "result": "1+"}, {"measurement": "Infection of WI 38 cells after 10 days of inoculation", "setting": "[3]", "result": "1+ and 2+"}, {"measurement": "Infection of WI 38 cells after 2 days of inoculation", "setting": "[4]", "result": "1+"}, {"measurement": "Infection of WI 38 cells after 10 days of inoculation", "setting": "[4]", "result": "3+"}, {"measurement": "Effect on WI 38 cells after 2 days", "setting": "[5]", "result": "Tox"}, {"measurement": "Effect on WI 38 cells after 10 days", "setting": "[5]", "result": "tox"}]}
